Assay results from paper PMC6212786 (Nucleic Acids Research, 2018).

Test system: T4 DNA ligase
Test: blunt-end DNA ligation assay, effect on T4 DNA ligase
Format: biochemical, bacteriophage T4
Details: pH 7.5

With “gp45: T4 sliding clamp, trimeric processivity factor for DNA polymerase” the “stimulation of blunt-end ligation activity of T4 DNA ligase” value was “did not stimulate”.
